The text below walks through data of ChEMBL document CHEMBL1149741, “Further bioactive acetylenic compounds from the Caribbean sponge Cribrochalina vasculum” (J Nat Prod, 1992).

Values after ≈ are worked out from the molar mass of the structure shown. Active and inactive are the calls of the source. The rule behind the calls is not given here.

What is called LC50 is the concentration that kills 50% of the test population. Low readings indicate greater toxicity, high ones lower toxicity.

A short description of series [1]: (§1) Toxicity against Artemia salina. The series is classed as organism-based. To be noted: in vivo.
For a further series, the system named is Lymphocyte. As to the kind of experiment: Immunosuppressive activity against lymphocyte by mixed lymphocyte reaction assay. In kind it is functional, cell-based.
The subject of another series is P388. As to the kind of experiment: Antitumor activity against mouse P388 cells. The series is classed as functional, cell-based.
The next series concerns Artemia salina. Described as §1. The series is classed as organism-based. To be noted: in vivo.

The molecule `C#C[C@H](O)/C=C/CCCCCCCCC(C)CCCCCCCC` (some centres undefined) had an LC50 in series [1] of 0.03 µg/mL (≈ 0.0897 µM).

`C#C[C@H](O)CCCCCCCCCCCCCCCC(C)C`: in series [1], the LC50 was found to be 1 µg/mL (≈ 3.24 µM).

In turn, `C#C/C=C/CCCCCCCCCC/C=C\CCCCCC` returned an LC50 in series [1] of 1.1 µg/mL (≈ 3.64 µM).

In series [1], `C#C[C@H](O)/C=C/CCCCCCCCCCCCCC(C)C` displayed an LC50 of 0.8 µg/mL (≈ 2.61 µM). Moreover, the result with Lymphocyte and with P388 was Active.

For the molecule `C#C[C@H](O)/C=C/CCCCCCCCC/C=C/CCCCCC`, in series [1], the LC50 amounted to 0.4 µg/mL (≈ 1.26 µM). The result with Lymphocyte and in the series with P388 was Active.

For the molecule `C#CC(O)/C=C/CCCCCCCCC/C=C/CCCCC(C)C` (centres undefined), the Activity entry in the series on Artemia salina is reported as “Toxic”. Moreover, the result with Lymphocyte and in the series with P388 was Active.

Turning to `C#CC(O)/C=C/CCCCCCCCCCCCCCC` (centres undefined), the Activity entry with Artemia salina is “Toxic”. Besides, the result in the series with Lymphocyte and in the series with P388 was Active.

`C#C[C@H](O)/C=C/CCCCCCCCCCC(C)CCCC` (some centres undefined) displayed an LC50 in series [1] of 0.8 µg/mL (≈ 2.61 µM). In addition, the result in the series with Lymphocyte and in the series with P388 was Active.

As for `C#C[C@H](O)CCCCCCCCCCCCC(C)CCCC` (some centres undefined), the LC50 in series [1] came to 1.2 µg/mL (≈ 3.89 µM).
